Laboratory results as given in patent US20230139171A1 (SITA Information Networking Computing UK Limited, priority 2019, published 2023).
pIC50: −log10 of the molar value.

How the values were obtained:
Assay type in all cases: cell-based
[1] = molecular target: T1, human TLR9 (Homo sapiens, UniProt Q9NR96); test: TLR9 inhibition reporter assay (HEK-Blue cells, SEAP reporter, ODN2006 stimulation); settings: HEK-Blue cells overexpressing human TLR9, SEAP reporter, ODN2006 5 nM
T1 construct: host or cells: HEK-Blue cells
T1 sequence (Q9NR96 26-1032): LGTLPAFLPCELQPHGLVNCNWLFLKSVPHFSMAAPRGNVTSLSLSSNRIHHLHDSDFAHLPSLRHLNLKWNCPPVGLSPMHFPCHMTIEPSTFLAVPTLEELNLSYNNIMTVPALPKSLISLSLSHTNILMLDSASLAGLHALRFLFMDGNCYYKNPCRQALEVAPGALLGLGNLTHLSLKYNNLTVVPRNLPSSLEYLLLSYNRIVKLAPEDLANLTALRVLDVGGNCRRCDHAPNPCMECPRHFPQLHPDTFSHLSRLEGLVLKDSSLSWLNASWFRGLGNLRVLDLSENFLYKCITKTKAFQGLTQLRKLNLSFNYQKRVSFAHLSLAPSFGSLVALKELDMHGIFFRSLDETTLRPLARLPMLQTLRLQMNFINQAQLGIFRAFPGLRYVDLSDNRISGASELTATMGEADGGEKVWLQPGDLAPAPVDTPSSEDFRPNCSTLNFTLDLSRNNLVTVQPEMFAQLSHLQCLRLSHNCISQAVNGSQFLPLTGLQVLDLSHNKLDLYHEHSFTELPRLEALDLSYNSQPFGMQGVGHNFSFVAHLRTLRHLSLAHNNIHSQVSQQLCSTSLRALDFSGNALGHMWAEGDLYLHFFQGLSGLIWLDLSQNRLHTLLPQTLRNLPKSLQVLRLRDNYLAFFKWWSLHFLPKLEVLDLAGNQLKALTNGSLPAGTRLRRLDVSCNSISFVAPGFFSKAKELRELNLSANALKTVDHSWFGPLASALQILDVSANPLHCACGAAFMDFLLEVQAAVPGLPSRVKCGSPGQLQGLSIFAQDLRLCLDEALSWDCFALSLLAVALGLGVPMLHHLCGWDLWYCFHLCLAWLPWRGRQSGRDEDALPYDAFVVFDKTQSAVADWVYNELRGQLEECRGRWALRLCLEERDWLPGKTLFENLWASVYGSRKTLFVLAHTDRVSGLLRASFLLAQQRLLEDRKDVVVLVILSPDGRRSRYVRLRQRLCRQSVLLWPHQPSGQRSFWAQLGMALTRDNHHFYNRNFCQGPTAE
Method in brief: (§1)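 Dose–response from 0.05 nM to 50 μM was run in HEK-Blue human TLR7, TLR8 and TLR9 reporter cells. After 30 min at room temperature with compound, ligand was added (TLR7 gardiquimod 7.5 μM; TLR8 R848 15.9 μM; TLR9 ODN2006 5 nM) and SEAP measured next day, at 22 h.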

[2] = molecular target: T2, human TLR8 (Homo sapiens, UniProt Q9NR97); test: TLR8 inhibition reporter assay (HEK-Blue cells, SEAP reporter, R848 stimulation); settings: HEK-Blue cells overexpressing human TLR8, SEAP reporter, R848 15.9 μM; read-out: TLR8 IC50
T2 construct: host or cells: HEK-Blue cells
T2 sequence (Q9NR97 27-1041): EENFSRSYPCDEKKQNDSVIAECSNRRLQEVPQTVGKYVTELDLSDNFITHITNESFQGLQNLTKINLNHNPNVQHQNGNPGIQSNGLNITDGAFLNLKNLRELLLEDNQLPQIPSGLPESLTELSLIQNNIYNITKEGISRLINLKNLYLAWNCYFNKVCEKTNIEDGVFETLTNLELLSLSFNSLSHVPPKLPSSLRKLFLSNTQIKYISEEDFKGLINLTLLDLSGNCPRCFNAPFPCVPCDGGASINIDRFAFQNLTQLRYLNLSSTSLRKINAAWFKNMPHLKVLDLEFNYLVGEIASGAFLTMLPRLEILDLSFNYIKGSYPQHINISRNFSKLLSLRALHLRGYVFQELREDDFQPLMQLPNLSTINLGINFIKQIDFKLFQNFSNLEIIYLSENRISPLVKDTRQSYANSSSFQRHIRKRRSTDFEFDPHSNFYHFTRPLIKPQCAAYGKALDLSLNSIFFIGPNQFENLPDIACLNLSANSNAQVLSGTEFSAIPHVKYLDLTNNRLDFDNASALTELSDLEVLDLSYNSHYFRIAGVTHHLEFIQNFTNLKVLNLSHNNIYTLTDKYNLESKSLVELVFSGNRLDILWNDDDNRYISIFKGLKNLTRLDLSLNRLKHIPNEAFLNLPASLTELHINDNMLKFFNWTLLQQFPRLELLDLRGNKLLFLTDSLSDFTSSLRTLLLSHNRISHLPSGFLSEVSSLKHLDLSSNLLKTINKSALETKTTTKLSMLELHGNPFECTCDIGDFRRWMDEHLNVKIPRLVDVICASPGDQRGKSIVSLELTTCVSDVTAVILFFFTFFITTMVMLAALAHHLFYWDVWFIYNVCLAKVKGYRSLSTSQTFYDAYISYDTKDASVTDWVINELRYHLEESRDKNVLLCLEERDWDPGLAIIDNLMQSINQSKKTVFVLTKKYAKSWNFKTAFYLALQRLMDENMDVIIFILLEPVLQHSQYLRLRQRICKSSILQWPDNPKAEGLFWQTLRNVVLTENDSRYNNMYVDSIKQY
Method in brief: as §1

[3] = molecular target: T3, human TLR7 (Homo sapiens, UniProt Q9NYK1); test: TLR7 inhibition reporter assay (HEK-Blue cells, SEAP reporter, gardiquimod stimulation); settings: HEK-Blue cells overexpressing human TLR7, SEAP reporter, gardiquimod 7.5 μM; read-out: TLR7 IC50
T3 construct: host or cells: HEK-Blue cells
T3 sequence (Q9NYK1 27-1049): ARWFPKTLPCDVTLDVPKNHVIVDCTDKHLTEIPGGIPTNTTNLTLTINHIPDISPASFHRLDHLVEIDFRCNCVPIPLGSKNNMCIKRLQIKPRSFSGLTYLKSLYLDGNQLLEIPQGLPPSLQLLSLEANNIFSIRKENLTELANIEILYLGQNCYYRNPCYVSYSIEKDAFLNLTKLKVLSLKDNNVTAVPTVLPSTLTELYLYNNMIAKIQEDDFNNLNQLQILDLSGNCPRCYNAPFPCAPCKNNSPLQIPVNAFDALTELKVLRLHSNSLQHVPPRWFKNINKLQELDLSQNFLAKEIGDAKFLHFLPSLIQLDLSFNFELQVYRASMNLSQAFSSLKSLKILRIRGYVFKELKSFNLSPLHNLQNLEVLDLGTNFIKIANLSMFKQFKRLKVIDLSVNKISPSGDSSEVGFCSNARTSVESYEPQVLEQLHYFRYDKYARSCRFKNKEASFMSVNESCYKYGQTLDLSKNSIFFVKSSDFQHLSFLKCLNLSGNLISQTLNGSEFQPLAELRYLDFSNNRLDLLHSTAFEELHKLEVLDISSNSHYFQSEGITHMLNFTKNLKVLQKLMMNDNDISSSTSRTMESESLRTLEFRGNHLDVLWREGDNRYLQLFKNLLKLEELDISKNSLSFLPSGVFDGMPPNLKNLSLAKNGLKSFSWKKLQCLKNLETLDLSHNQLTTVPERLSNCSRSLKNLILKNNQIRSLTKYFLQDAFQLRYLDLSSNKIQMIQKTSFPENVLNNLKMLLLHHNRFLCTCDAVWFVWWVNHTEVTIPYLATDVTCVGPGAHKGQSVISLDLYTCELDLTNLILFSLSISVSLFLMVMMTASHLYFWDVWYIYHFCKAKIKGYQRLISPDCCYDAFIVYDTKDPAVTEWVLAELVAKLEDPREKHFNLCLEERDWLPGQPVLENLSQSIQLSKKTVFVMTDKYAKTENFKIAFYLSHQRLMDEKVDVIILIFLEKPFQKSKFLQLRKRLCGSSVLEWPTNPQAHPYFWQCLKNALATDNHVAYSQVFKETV
Method in brief: as §1

Compound | pIC50 [1] | pIC50 [2] | pIC50 [3]
Cc1c(-c2[nH]c3sc(C4CCC(N5CCC5)CC4)nc3c2C(C)C)cn(C)c(=O)c1C (single isomer, unassigned) [Example 255, 5-(2-(4-(azetidin-1-yl)cyclohexyl)-6-isopropyl-4H-pyrrolo[3,2-d]thiazol-5-yl)-1,3,4-trimethylpyridin-2(1H)-one] | 4.82 | 8.31 | 8.16
Cc1c(-c2[nH]c3sc(C4CCC(N5CCC5)CC4)nc3c2C(C)C)cn(C)c(=O)c1C (single isomer, unassigned) [Example 256, 5-(2-(4-(azetidin-1-yl)cyclohexyl)-6-isopropyl-4H-pyrrolo[3,2-d]thiazol-5-yl)-1,3,4-trimethylpyridin-2(1H)-one] | 4.77 | 7.50 | 7.46
Cc1c(-c2[nH]c3sc(C4CCC(NCC5(S(C)(=O)=O)CC5)CC4)nc3c2C(C)C)cn(C)c(=O)c1C (single isomer, unassigned) [Example 257, 5-(6-isopropyl-2-(4-(((1-(methylsulfonyl)cyclopropyl)methyl)amino)cyclohexyl)-4H-pyrrolo[3,2-d]thiazol-5-yl)-1,3,4-trimethylpyridin-2(1H)-one] | 4.46 | 9.07 | 7.87
Cc1c(-c2[nH]c3sc(C4CCC(NCC5(S(C)(=O)=O)CC5)CC4)nc3c2C(C)C)cn(C)c(=O)c1C (single isomer, unassigned) [Example 258, 5-(6-isopropyl-2-(4-(((1-(methylsulfonyl)cyclopropyl)methyl)amino)cyclohexyl)-4H-pyrrolo[3,2-d]thiazol-5-yl)-1,3,4-trimethylpyridin-2(1H)-one] | 4.53 | 8.04 | 7.44
Cc1c(-c2[nH]c3sc(C4CCC(N5CCNC(=O)C5)CC4)nc3c2C(C)C)cn(C)c(=O)c1C (single isomer, unassigned) [Example 259, 4-(4-(6-isopropyl-5-(1,4,5-trimethyl-6-oxo-1,6-dihydropyridin-3-yl)-4H-pyrrolo[3,2-d]thiazol-2-yl)cyclohexyl)piperazin-2-one] | < 4.30 | 7.86 | 7.63
Cc1c(-c2[nH]c3sc(C4CCC(N5CCNC(=O)C5)CC4)nc3c2C(C)C)cn(C)c(=O)c1C (single isomer, unassigned) [Example 260, 4-(4-(6-isopropyl-5-(1,4,5-trimethyl-6-oxo-1,6-dihydropyridin-3-yl)-4H-pyrrolo[3,2-d]thiazol-2-yl)cyclohexyl)piperazin-2-one] | < 4.30 | 6.86 | 6.77
Cc1c(-c2[nH]c3sc(C4CCC(N(C)C(C)C)CC4)nc3c2C(C)C)cn(C)c(=O)c1C (single isomer, unassigned) [Example 261, 5-(6-isopropyl-2-(4-(isopropyl(methyl)amino)cyclohexyl)-4H-pyrrolo[3,2-d]thiazol-5-yl)-1,3,4-trimethylpyridin-2(1H)-one] | 4.77 | 8.65 | 8.07
Cc1c(-c2[nH]c3sc(C4CCC(N(C)C(C)C)CC4)nc3c2C(C)C)cn(C)c(=O)c1C (single isomer, unassigned) [Example 262, 5-(6-isopropyl-2-(4-(isopropyl(methyl)amino)cyclohexyl)-4H-pyrrolo[3,2-d]thiazol-5-yl)-1,3,4-trimethylpyridin-2(1H)-one] | 4.74 | 7.76 | 7.62
Cc1c(-c2[nH]c3sc(C4CCC(N5CC(O)C5)CC4)nc3c2C(C)C)cn(C)c(=O)c1C (single isomer, unassigned) [Example 263, 5-(2-(4-(3-hydroxyazetidin-1-yl)cyclohexyl)-6-isopropyl-4H-pyrrolo[3,2-d]thiazol-5-yl)-1,3,4-trimethylpyridin-2(1H)-one] | 4.74 | 8.35 | 8.32
Cc1c(-c2[nH]c3sc(C4CCC(N5CC(O)C5)CC4)nc3c2C(C)C)cn(C)c(=O)c1C (single isomer, unassigned) [Example 264, 5-(2-(4-(3-hydroxyazetidin-1-yl)cyclohexyl)-6-isopropyl-4H-pyrrolo[3,2-d]thiazol-5-yl)-1,3,4-trimethylpyridin-2(1H)-one] | 4.66 | 7.64 | 7.57
Cc1c(-c2[nH]c3sc(C4CCC(N5CC(F)C5)CC4)nc3c2C(C)C)cn(C)c(=O)c1C (single isomer, unassigned) [Example 265, 5-(2-(4-(3-fluoroazetidin-1-yl)cyclohexyl)-6-isopropyl-4H-pyrrolo[3,2-d]thiazol-5-yl)-1,3,4-trimethylpyridin-2(1H)-one] | 4.32 | 8.48 | 7.85
Cc1c(-c2[nH]c3sc(C4CCC(N5CC(F)C5)CC4)nc3c2C(C)C)cn(C)c(=O)c1C (single isomer, unassigned) [Example 266, 5-(2-(4-(3-fluoroazetidin-1-yl)cyclohexyl)-6-isopropyl-4H-pyrrolo[3,2-d]thiazol-5-yl)-1,3,4-trimethylpyridin-2(1H)-one] | < 4.30 | 7.22 | 6.92
